Results: ChEMBL document CHEMBL1201862, “PubChem BioAssay data set” (2004)
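Cultured in 96-well plates, cells were exposed to test compound for 48 hours across five concentrations. GI50 marks 50% less growth.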 Active and inactive are the calls of the source. Rule as the data show it: active = GI50 up to about 1.1 µM and inactive = higher.

Experiments:
Test in all cases: NCI anticancer screen, dose series, 48 h
[1] = test system: A498
[2] = test system: A549
[3] = test system: BT-549
[4] = test system: CAKI-1
[5] = test system: EKVX
[6] = test system: HOP-62
[7] = test system: IGROV-1
[8] = test system: M19-MEL
[9] = test system: MDA-MB-435
[10] = test system: MOLT-4
[11] = test system: NCI/ADR-RES
[12] = test system: OVCAR-4
[13] = test system: RPMI-8226
[14] = test system: SK-MEL-2
[15] = test system: SK-OV-3
[16] = test system: SNB-75
[17] = test system: U-251
[18] = test system: UACC-257
[19] = test system: UACC-62
[20] = test system: UO-31

SMILES: Cc1cc(NC(=O)NC(=O)c2ccccc2NC(=O)CN(C)C)ccc1Oc1ncc(Br)cn1
- GI50 [1]: 0.929 µM (active)
- GI50 [2]: 3.54 µM (inactive)
- GI50 [3]: > 100 µM (inactive)
- GI50 [4]: 3.68 µM (inactive)
- GI50 [5]: 12.9 µM (inactive)
- GI50 [6]: 2.76 µM (inactive)
- GI50 [7]: 6.27 µM (inactive)
- GI50 [8]: 36.8 µM (inactive)
- GI50 [9]: 0.289 µM (active)
- GI50 [10]: 4.95 µM (inactive)
- GI50 [11]: 1.05 µM (active)
- GI50 [12]: 71.3 µM (inactive)
- GI50 [13]: 10.4 µM (inactive)
- GI50 [14]: 10.4 µM (inactive)
- GI50 [15]: 2.81 µM (inactive)
- GI50 [16]: 1.89 µM (inactive)
- GI50 [17]: 3.92 µM (inactive)
- GI50 [18]: 57.5 µM (inactive)
- GI50 [19]: 2.21 µM (inactive)
- GI50 [20]: 8.55 µM (inactive)

SMILES: N#CCCN(c1ccc(-c2nnc(NC(=O)CNNC(=O)CC(=O)Nc3ccccc3)s2)cc1)S(=O)(=O)c1ccccc1
- GI50 [1]: > 100 µM (inactive)
- GI50 [2]: 88.1 µM (inactive)
- GI50 [4]: 78 µM (inactive)
- GI50 [5]: > 100 µM (inactive)
- GI50 [6]: > 100 µM (inactive)
- GI50 [7]: > 100 µM (inactive)
- GI50 [8]: > 100 µM (inactive)
- GI50 [10]: 45.3 µM (inactive)
- GI50 [12]: 53.2 µM (inactive)
- GI50 [13]: > 100 µM (inactive)
- GI50 [14]: > 100 µM (inactive)
- GI50 [15]: > 100 µM (inactive)
- GI50 [16]: 29 µM (inactive)
- GI50 [17]: > 100 µM (inactive)
- GI50 [18]: > 100 µM (inactive)
- GI50 [19]: 50.8 µM (inactive)
- GI50 [20]: 46.3 µM (inactive)

SMILES: COc1ccc(CN2C(=O)C(Cc3cc(OC)c(OC)c(C)c3OC)N(C(=O)OC(C)C)C(=O)/C2=C/c2cc(OC)c(OC)c(C)c2OC)cc1 (centres undefined)
- GI50 [1]: > 100 µM (inactive)
- GI50 [2]: > 100 µM (inactive)
- GI50 [4]: > 100 µM (inactive)
- GI50 [5]: 50.8 µM (inactive)
- GI50 [6]: > 100 µM (inactive)
- GI50 [7]: > 100 µM (inactive)
- GI50 [8]: > 100 µM (inactive)
- GI50 [10]: 5.94 µM (inactive)
- GI50 [12]: > 100 µM (inactive)
- GI50 [13]: 16.4 µM (inactive)
- GI50 [14]: 49.1 µM (inactive)
- GI50 [15]: > 100 µM (inactive)
- GI50 [16]: 83.8 µM (inactive)
- GI50 [17]: > 100 µM (inactive)
- GI50 [18]: 48 µM (inactive)
- GI50 [19]: > 100 µM (inactive)
- GI50 [20]: 16.6 µM (inactive)

SMILES: O=c1c(Cl)c(Cl)cnn1CCCl
- GI50 [1]: 13.1 µM (inactive)
- GI50 [2]: 17.9 µM (inactive)
- GI50 [3]: 3.47 µM (inactive)
- GI50 [4]: 2.27 µM (inactive)
- GI50 [5]: 6.73 µM (inactive)
- GI50 [6]: 17.3 µM (inactive)
- GI50 [7]: 1.95 µM (inactive)
- GI50 [8]: 2.67 µM (inactive)
- GI50 [9]: 2.82 µM (inactive)
- GI50 [10]: 2.54 µM (inactive)
- GI50 [12]: 1.57 µM (inactive)
- GI50 [13]: 6.5 µM (inactive)
- GI50 [15]: 3.56 µM (inactive)
- GI50 [16]: 11.1 µM (inactive)
- GI50 [17]: 5.9 µM (inactive)
- GI50 [18]: 4.46 µM (inactive)
- GI50 [19]: 3.4 µM (inactive)
- GI50 [20]: 5.75 µM (inactive)

SMILES: O=C(NO)C(=O)Nc1cc(Cl)ccc1Cl
- GI50 [1]: > 100 µM (inactive)
- GI50 [2]: > 100 µM (inactive)
- GI50 [4]: 23.2 µM (inactive)
- GI50 [5]: > 100 µM (inactive)
- GI50 [6]: > 100 µM (inactive)
- GI50 [7]: 20.1 µM (inactive)
- GI50 [8]: > 100 µM (inactive)
- GI50 [10]: 83.6 µM (inactive)
- GI50 [12]: > 100 µM (inactive)
- GI50 [13]: > 100 µM (inactive)
- GI50 [14]: > 100 µM (inactive)
- GI50 [15]: > 100 µM (inactive)
- GI50 [16]: > 100 µM (inactive)
- GI50 [17]: > 100 µM (inactive)
- GI50 [18]: > 100 µM (inactive)
- GI50 [19]: > 100 µM (inactive)
- GI50 [20]: 22 µM (inactive)

SMILES: Cn1cnc([N+](=O)[O-])c1Sc1nnc(-c2ccc(Cl)cc2)n1C
- GI50 [1]: 27.8 µM (inactive)
- GI50 [2]: 48.9 µM (inactive)
- GI50 [4]: 15.9 µM (inactive)
- GI50 [5]: 5.79 µM (inactive)
- GI50 [6]: > 100 µM (inactive)
- GI50 [7]: 16.7 µM (inactive)
- GI50 [8]: 14.1 µM (inactive)
- GI50 [10]: 6.78 µM (inactive)
- GI50 [12]: 13.7 µM (inactive)
- GI50 [13]: 16.4 µM (inactive)
- GI50 [14]: 15.5 µM (inactive)
- GI50 [15]: 51.2 µM (inactive)
- GI50 [16]: 17.7 µM (inactive)
- GI50 [17]: 16.3 µM (inactive)
- GI50 [18]: 12.7 µM (inactive)
- GI50 [19]: 15.5 µM (inactive)
- GI50 [20]: 14.6 µM (inactive)

SMILES: COc1cc([C@@H]2c3cc4c(cc3[C@@H](OC(=O)c3ccc(N)cc3)C3COC(=O)[C@@H]32)OCO4)cc(OC)c1O (some centres undefined)
- GI50 [1]: 5.82 µM (inactive)
- GI50 [2]: 5.02 µM (inactive)
- GI50 [4]: 8.47 µM (inactive)
- GI50 [5]: 20.2 µM (inactive)
- GI50 [6]: 3.5 µM (inactive)
- GI50 [7]: 2.8 µM (inactive)
- GI50 [8]: 4.99 µM (inactive)
- GI50 [10]: 3.1 µM (inactive)
- GI50 [12]: 45.4 µM (inactive)
- GI50 [13]: 7.8 µM (inactive)
- GI50 [14]: 6.32 µM (inactive)
- GI50 [15]: 3.2 µM (inactive)
- GI50 [16]: 3.21 µM (inactive)
- GI50 [17]: 4.45 µM (inactive)
- GI50 [18]: 9.14 µM (inactive)
- GI50 [19]: 4.91 µM (inactive)
- GI50 [20]: 10.2 µM (inactive)

SMILES: COc1ccc(COC2CC(OC)OC(C)C2OC(=O)c2ccccc2)cc1 (centres undefined)
- GI50 [1]: 61.5 µM (inactive)
- GI50 [2]: 33 µM (inactive)
- GI50 [4]: 36.5 µM (inactive)
- GI50 [5]: 70.1 µM (inactive)
- GI50 [6]: > 73.5 µM (inactive)
- GI50 [7]: 90.4 µM (inactive)
- GI50 [8]: 34.5 µM (inactive)
- GI50 [10]: 15.6 µM (inactive)
- GI50 [12]: 32.8 µM (inactive)
- GI50 [13]: 18.5 µM (inactive)
- GI50 [14]: 54 µM (inactive)
- GI50 [15]: > 100 µM (inactive)
- GI50 [16]: 38.3 µM (inactive)
- GI50 [17]: 35.5 µM (inactive)
- GI50 [18]: 40.1 µM (inactive)
- GI50 [19]: 32.9 µM (inactive)
- GI50 [20]: 22.7 µM (inactive)

SMILES: C[C@@H]1O[C@@H](O[C@H]2CC[C@]3(C=O)[C@H]4CC[C@]5(C)[C@@H](c6ccc(=O)oc6)CC[C@]5(O)[C@@H]4CC[C@]3(O)C2)[C@H](O)[C@H](O)[C@H]1O[C@@H]1O[C@H](CO)[C@@H](O)[C@H](O)[C@H]1O [HELLEBRIN]
- GI50 [1]: 0.0284 µM (active)
- GI50 [3]: 0.00509 µM (active)
- GI50 [4]: 0.0121 µM (active)
- GI50 [5]: 0.0075 µM (active)
- GI50 [6]: 0.0375 µM (active)
- GI50 [7]: 0.0183 µM (active)
- GI50 [8]: 0.0375 µM (active)
- GI50 [9]: 0.0107 µM (active)
- GI50 [10]: 0.00302 µM (active)
- GI50 [11]: 0.0152 µM (active)
- GI50 [12]: 0.00743 µM (active)
- GI50 [13]: 0.0375 µM (active)
- GI50 [14]: 0.0199 µM (active)
- GI50 [15]: 0.0226 µM (active)
- GI50 [16]: 0.0198 µM (active)
- GI50 [17]: 0.0223 µM (active)
- GI50 [18]: 0.0243 µM (active)
- GI50 [19]: 0.027 µM (active)
- GI50 [20]: 0.0186 µM (active)
